Data reported in patent publication US6352980B1, “Estrenes for inducting hypothalamic effects” (Pherin Pharmaceuticals, Inc., priority 1991, dated 2002).
“Also recorded” adds a separate entry of the source.

Key:
[1] = tested on: olfactory epithelium (OE); assay: Local electrical potential of the olfactory epithelium on localized gaseous stimulation (Example 52); type: in vivo, human; conditions: both males and females; compared to clove; FIG. 2C
Protocol: (§1) A non-invasive method has been employed to record local electrical potentials from the human vomeronasal organ (VNO) and from the olfactory epithelium (OE). Localized gaseous stimulation was applied to both nasal structures at different instances using specially designed catheter/electrodes connected to a multichannel drug delivery system.
(§2) The study was performed on ten clinically normal (screened) volunteers—2 males and 8 females, ranging in age from 18 to 85 years. The studies were conducted without general or local anesthetics.
(§3) The catheter/electrodes were designed to deliver a localized stimulus and simultaneously record the response. In the case of VNO recording, the right nasal fosa of the subject was explored using a nasoscope (nasal specula) and the vomeronasal opening was localized close to the intersection of the anterior edge of the vomer and the nasal floor. The catheter/electrode was gently driven through the VNO-opening and the electrode tip placed in the organ's lumen at 1 to 3 mm from the opening. The nasoscope was then removed. In the case of the OE, recording the procedure was similar except the positioning of the catheter/electrode was gently placed deep in the lateral part of the medial nasal duct, reaching the olfactory mucosa.
Localized gaseous stimulation was done through the catheter/electrode. […]
(§4) The response is measured in millivolt-seconds (mV×s).

[2] = tested on: human vomeronasal organ (VNO); assay: Local electrical potential of the VNO on localized gaseous stimulation (Example 52); type: in vivo; conditions: for VNO response, males versus females (sexual dimorphism): FIG. 2B; for VNO response: male subjects, about 25 pg to the nasal cavity, response measured in mV×s, FIG. 2A
Protocol: as §1, §2, §3
Localized gaseous stimulation was done through the catheter/electrode. A constant stream of clean, nonodorous, humidified air at room temperature was continuously passed through a channel of the stimulating system. The stimulating ligand substances were diluted in propylene glycol, mixed with the humidified air, and puffed for from 1 to 2 seconds through the catheter/electrode. It is estimated that this administration provides about 25 pg of steroid-ligand to the nasal cavity.
as §4

VNO [3] = assay: Cortical activity (EEG) on VNO stimulation with vomeropherins; type: in vivo, human; conditions: males; 200 fmoles; air pulses 300 ms to 1 sec; FIG. 6E
Protocol: (§5) Cortical evoked activity was induced by VNO stimulation with vomeropherins, and olfactory stimulation with odorants delivered in 300 ms air pulses. It was recorded using standard electroencephalographic (EEG) electrodes placed at positions Cz-A1 and Tz-A1 of the international […] system; the ground electrode was placed on the mastoid process. Electrodermal activity (EDA) was recorded using standard 8 mm silver electrodes in contact with palmar skin of the medial and ring fingers, respeCtively, through a conductive gel interface. Skin temperature (ST) was recorded by a small (1.0 mm) thermistor probe placed in the right ear lobe. Peripheral arterial pulse (PAP) was monitored with a plethysmograph attached to the tip of the index finger. Respiratory frequency (RF) was measured with an adjustable strain gauge placed around the lower thorax. All electrical signals were DC amplified, digitized (MP-100, Biopac Systems) and continuously monitored utilizing a computer.
(§6) Statistical Analysis: EVGs or EOGS, peak-to-peak changes and frequency changes of other parameters were measured and statistically analyzed. The significance of the results was determined by either using paired t-tests or analysis of variance (ANOVA).
[…] […] Synchronization of the EEG was sustained for 1.5 to 2.7 minutes after application of a single pulse of active substance.

VNO [4] = assay: Electro-vomeronasogram (EVG) (Example 57); type: in vivo, human; conditions: male subjects (ages 20 to 38); 100 fmoles; 1 second pulses; FIG. 6A
Protocol: The following electrophysiological studies were performed in 60 clinically normal human volunteers of both sexes (30 male and 30 female) whose ages ranged from 20 to 45 years. No anesthetics were used, and female subjects were excluded if pregnant.
The stimulation and recording system consists of a “multifunctional miniprobe” described elsewhere (Monti-Bloch, L. and Grosser, B. l. (1991) “Effect of putative pheromones on the electrical activity of the human vomeronasal organ and olfactory epithelium,” J. Steroid Biochem. Molec. Biol. 39:573-582.). The recording electrode is a 0.3 mm silver ball attached to a small (0.1 mm) silver wire insulated with Teflon© the surface of the electrode is first treated to produce a silver chloride interface, and is then covered with gelatin It is positioned within a small caliber Teflon© catheter (dia=5 mm) such that the tip of the electrode protrudes approximately 2 mm. The Teflon© catheter is 10 cm in length and constitutes the terminal extension for a multichannel delivery system which delivers a continuous air stream carrying discreet pulses of chemosensory stimuli. The air stream first passes into a small chamber and is bubbled through a solution containing either a vomeropherin or an olfactant in a diluent or the diluent alone. A solenoid is used to rapidly redirect the air stream from the chamber to a route which bypasses the chamber. This creates a discreet pulse of stimulant in the air stream. A second, outer Teflon® tube with a diameter of 2 mm surrounds the catheter-electrode assemblage, and its central end is connected to an aspirator that provides continuous suction of 3 ml/s. This concentric arrangement of the outer suction tube allows the emitted chemosensory stimuli to be localized to an area we call a “minifield” (approx. dia=1 mm), and it avoids diffusion of substances either to the area outside the intended stimulation site or into the respiratory system. The entire stimulating and recording assemblage may be positioned either on the neurosensory epithelium within the VNO, or on the surface of the olfactory or respiratory epithelium.
Electro-vomeronasogram (EVG): Recordings are carried out in a quiet room with the subject supine; the multi-functional miniprobe is initially stabilized within the nasal cavity using a nasal retractor placed in the vestibule. Reference and ground electrodes consist of silver discs (8 mm), both of which are positioned on the glabella.
The entrance to the VNO, or vomeronasal pit, is identified by first dilating the nasal aperture and vestibule. A 6× magnifying binocular loupe with halogen illumination is then used to introduce the tip of the Teflon® catheter and recording electrode assemblage into the VNO opening where it is stabilized at an approximate depth of 1 mm within the vomeronasal passage. Optimal placement of the recording electrode is signaled after testing for an adequate depolarization in response to a test substance.
Electrical signals from the recording electrode are fed to a DC amplifier after which they are digitized, computer monitored, and stored. The peak-to-peak amplitude of the signals is measured, and the area under the depolarization wave is integrated, while continuously monitoring the signal both on the computer screen and on a digital oscilloscope. Artifacts produced by respiratory movements are deleted by training the subjects to practice mouth breathing with velopharyngeal closure.
Chemosensory Stimulants: Olfactory test substances are cineole, and 1-carvone; vomeropherins are A, B, C, E and F. (Vomeropherins were supplied by Pherin Corporation, Menlo Park, Calif.), Samples of vomeropherins In. concentration of 25-800 fmoles are delivered in the continuous air stream for durations from 300 milliseconds to 1 second. Usually, intervals of 3 to 5 minutes separated each series of short test pulses. […]

VNO [5] = assay: Skin temperature (ST) on vomeropherin stimulation of the VNO; type: in vivo, human; conditions: 30 male subjects; p<0.01; FIG. 6G
Protocol: as §5, §6
In female subjects vomeropherins produced changes in EDA and ST with a greater standard deviation than in males.

VNO [6] = assay: Electrodermal activity (EDA) on vomeropherin stimulation of the VNO; type: in vivo, human; conditions: male subjects, n=30; p<0.01; FIG. 6C
Protocol: as §5, §6
Reflex Effects of Vomeropherins: Studies were conducted to determine the central nervous system (CNS) reflex responses to vomeropherin stimulation of the VNO. The sexually dimorphic local responses induced by vomeropherins (FIGS. 6A and B) were mirrored in the autonomic response of male & female subjects. […] In female subjects.

VNO [7] = assay: Comparison of change in receptor potential induced by two Estrene steroids (Example 55); type: in vivo, human; conditions: 60 picograms; a subject; FIG. 5
Protocol: 60 picograms of each steroid and of a propylene glycol control were administered to a subject as described in Example 21.

VNO [8] = conditions: 2% lidocaine applied to the respiratory epithelium of the nasal septum; cited from earlier work

C[C@]12CC[C@@H]3c4ccc(O)cc4CC[C@H]3[C@@H]1C[C@@H](O)[C@@H]2O [1,3,5(10)-Estratrien-3,16α,17β-triol, reference compound]
OE response [1]: low compared to a strong odorant such as clove | VNO response, males versus females (sexual dimorphism) [2]: approximately four times as strong in males as it is in females | VNO response [2]: strong VNO response

C[C@@]12C=CC[C@H]1[C@@H]1CCc3cc(O)ccc3[C@H]1CC2 [C, 1,3,5(10),16-Estratetraen-3-ol]
OE response [1]: low compared to a strong odorant such as clove | alpha cortical activity (VNO [3]): significantly increased alpha cortical activity | EVG average response (mean) (VNO [4]): 6.4 mV | skin temperature (ST) (VNO [5]): significant increase in skin temperature | skin resistance (electrodermal activity, EDA) (VNO [6]): decreased skin resistance | VNO response, males versus females (sexual dimorphism) [2]: approximately four times as strong in males as it is in females | VNO response [2]: significantly stronger VNO response in males than do the other compounds tested

COc1ccc2c(c1)CC[C@@H]1[C@@H]2CC[C@]2(C)C=CC[C@@H]12 [D, 3-Methoxy-Estra-1,3,5(10)16-tetraene]
alpha cortical activity (VNO [3]): significantly increased alpha cortical activity; also recorded: strongest effect | EVG average response (mean) (VNO [4]): 15.1 mV | skin temperature (ST) (VNO [5]): significant temperature decrease | change in receptor potential (VNO [7]): greater change in receptor potential than did 1,3,5(10),16-Estratetraen-3-yl acetate

CCN(CC)CC(=O)Nc1c(C)cccc1C [lidocaine]
effect of local anesthetic on the EVG (VNO [8]): neither blocks nor diminishes the EVG
